{
  "source": "patent US10144709B2",
  "about": "“Piperidine compounds, pharmaceutical composition comprising the same and its use” (SK BIOPHARMACEUTICALS CO., LTD., priority 2008, dated 2018)",
  "note": "Structures can show the parent of a compound that is named as a salt.",
  "data": [
    {"tested_on": "ICR CD strain male mice", "assay": "Gastric emptying enhancing activity (phenol red meal)", "type": "in vivo", "conditions": "Mus musculus, ip, 0.25 h, 3.0 mg/kg i.p., gastric emptying at 15 min after test meal, increase vs vehicle", "experimental": "ICR CD strain male mice (body weight, 25˜30 g; 8 mice per one group) were fasted for 24 h but allowed free access to water until 3 hours before the test.\nCompounds to be tested for promoting GI motility were injected intraperitoneally or given orally at 30 min or 60 min prior to phenol red meal administration. Fifteen (15) min after administration of a test meal (0.5% Phenol red in 1.5% methylcellulose solution), mice were sacrificed and the stomach (pylorus˜cardia) was removed and collected to vial. The stomach was homogenized with its contents in 0.1N NaOH and the mixture was centrifuged (700*g) for 20 min. 2.5 mL of the supernatant was added to 0.25 mL of trichloroacetic acid solution (20% w/v) to precipitate proteins. After centrifuging (2600*g) for 20 min, 0.5 mL of the supernatant was added to 0.25 mL of 1N NaOH. The mixture was homogenized and its absorbance (Abs) was read at 560 nm.\nIn each experiment, one group was sacrificed just after the administration of the test meal and was considered as a standard (0% emptying). The gastric emptying (GE) at the 15 min period was calculated according to the following formula. GE (%)=(1−Abstest/Absstandard)×100 Increase (%)=(GE %test−GE %vehicle)/GE %vehicle*100", "units": {"change in vivo at 3 mg/kg": "%"}, "values": [
      {"smiles": "COc1cc(N)c(Cl)cc1C(=O)NCC1CCN(CCC(NC(=O)O)c2cccc(Cl)c2Cl)CC1", "note": "(stereo not shown) [Example 59, [3-[4-[[(4-amino-5-chloro-2-methoxybenzoyl)amino]methyl]piperidin-1-yl]-1-(2,3-dichlorophenyl)propyl]carbamate; hydrochloride]", "change in vivo at 3 mg/kg": 48},
      {"smiles": "COc1cc(N)c(Cl)cc1C(=O)NCC1CCN(CCC(O)c2cccc(Cl)c2Cl)CC1", "note": "(stereo not shown) [Example 45, 4-amino-5-chloro-N-[[1-[3-(2,3-dichlorophenyl)-3-hydroxypropyl]piperidin-4-yl]methyl]-2-methoxybenzamide; hydrochloride]", "change in vivo at 3 mg/kg": 51.4},
      {"smiles": "COc1cc(N)c(Cl)cc1C(=O)NCC1CCN(CC(O)c2ccc(OC(F)F)cc2)CC1", "note": "(stereo not shown) [Example 16, 4-amino-5-chloro-N-[[1-[2-[4-(difluoromethoxy)phenyl]-2-hydroxyethyl]piperidin-4-yl]methyl]-2-methoxybenzamide; hydrochloride]", "change in vivo at 3 mg/kg": 53.6},
      {"smiles": "COc1cc(N)c(Cl)cc1C(=O)NCC1CCN(CCC(NC(=O)O)c2ccccc2)CC1", "note": "(stereo not shown) [Example 53, [3-[4-[[(4-amino-5-chloro-2-methoxybenzoyl)amino]methyl]piperidin-1-yl]-1-phenylpropyl]carbamate; hydrochloride]", "change in vivo at 3 mg/kg": 28.4},
      {"smiles": "COc1cc(N)c(Cl)cc1C(=O)NCC1CCN(CC(O)c2ccc(F)cc2)CC1", "note": "(stereo not shown) [Example 2, 4-amino-5-chloro-N-[[1-[2-(4-fluorophenyl)-2-hydroxyethyl]piperidin-4-yl]methyl]-2-methoxybenzamide; hydrochloride]", "change in vivo at 3 mg/kg": 42.6},
      {"smiles": "COc1ccc(OCC(CN2CCC(CNC(=O)n3c(=O)n(C(C)C)c4ccccc43)CC2)NC(=O)O)cc1", "note": "(stereo not shown) [Example 121, [1-(4-methoxyphenoxy)-3-[4-[[(2-oxo-3-propan-2-ylbenzimidazole-1-carbonyl)amino]methyl]piperidin-1-yl]propan-2-yl]carbamate; hydrochloride]", "change in vivo at 3 mg/kg": 46.8},
      {"smiles": "COc1cc(N)c(Cl)cc1C(=O)NCC1CCN(CC(COc2c(Cl)cccc2Cl)NC(=O)O)CC1", "note": "(stereo not shown) [Example 98, [1-[4-[[(4-amino-5-chloro-2-methoxybenzoyl)amino]methyl]piperidin-1-yl]-3-(2,6-dichlorophenoxy)propan-2-yl]carbamate; hydrochloride]", "change in vivo at 3 mg/kg": 63.6},
      {"smiles": "COc1cccc(C(O)CN2CCC(CNC(=O)c3cc(Cl)c(N)cc3OC)CC2)c1", "note": "(stereo not shown) [Example 9, 4-amino-5-chloro-N-[[1-[2-hydroxy-2-(3-methoxyphenyl)ethyl]piperidin-4-yl]methyl]-2-methoxybenzamide; hydrochloride]", "change in vivo at 3 mg/kg": 55.8},
      {"smiles": "COc1cc(N)c(Cl)cc1C(=O)NCC1CCN(CCC(O)c2ccc(Cl)cc2Cl)CC1", "note": "(stereo not shown) [Example 46, 4-amino-5-chloro-N-[[1-[3-(2,4-dichlorophenyl)-3-hydroxypropyl]piperidin-4-yl]methyl]-2-methoxybenzamide; hydrochloride]", "change in vivo at 3 mg/kg": 45.9},
      {"smiles": "COc1ccc(OCC(O)CN2CCC(CNC(=O)c3cc(Cl)c(N)cc3OC)CC2)cc1", "note": "(stereo not shown) [Example 74, 4-amino-5-chloro-N-[[1-[2-hydroxy-3-(4-methoxyphenoxy)propyl]piperidin-4-yl]methyl]-2-methoxybenzamide; hydrochloride]", "change in vivo at 3 mg/kg": 46.7},
      {"smiles": "COc1ccc(OC)c(C(O)CN2CCC(CNC(=O)c3cc(Cl)c(N)cc3OC)CC2)c1", "note": "(stereo not shown) [Example 15, 4-amino-5-chloro-N-[[1-[2-(2,5-dimethoxyphenyl)-2-hydroxyethyl]piperidin-4-yl]methyl]-2-methoxybenzamide; hydrochloride]", "change in vivo at 3 mg/kg": 78.7},
      {"smiles": "COc1cc(N)c(Cl)cc1C(=O)NCC1CCN(CCC(NC(=O)O)c2ccc(C(C)C)cc2)CC1", "note": "(stereo not shown) [Example 62, [3-[4-[[(4-amino-5-chloro-2-methoxybenzoyl)amino]methyl]piperidin-1-yl]-1-(4-isopropylphenyl)propyl]carbamate; hydrochloride]", "change in vivo at 3 mg/kg": 17.9},
      {"smiles": "COc1cc(N)c(Cl)cc1C(=O)NCC1CCN(CCC(O)c2cccc(Cl)c2)CC1", "note": "(stereo not shown) [Example 42, 4-amino-5-chloro-N-[[1-[3-(3-chlorophenyl)-3-hydroxypropyl]piperidin-4-yl]methyl]-2-methoxybenzamide; hydrochloride]", "change in vivo at 3 mg/kg": 42.7},
      {"smiles": "CC(C)n1c(=O)n(C(=O)NCC2CCN(CC(O)COc3ccccc3)CC2)c2ccccc21", "note": "(stereo not shown) [Example 104, N-[[1-(2-hydroxy-3-phenoxypropyl)piperidin-4-yl]methyl]-2-oxo-3-propan-2-ylbenzimidazole-1-carboxamide; hydrochloride]", "change in vivo at 3 mg/kg": 81},
      {"smiles": "COc1cc(N)c(Cl)cc1C(=O)NCC1CCN(CCC(O)c2cccs2)CC1", "note": "(stereo not shown) [Example 50, 4-amino-5-chloro-N-[[1-(3-hydroxy-3-thiophen-2-ylpropyl)piperidin-4-yl]methyl]-2-methoxybenzamide; hydrochloride]", "change in vivo at 3 mg/kg": 3.9},
      {"smiles": "COc1cc(N)c(Cl)cc1C(=O)NCC1CCN(CC(NC(=O)O)c2ccccc2Cl)CC1", "note": "(stereo not shown) [Example 29, [2-[4-[[(4-amino-5-chloro-2-methoxybenzoyl)amino]methyl]piperidin-1-yl]-1-(2-chlorophenyl)ethyl]carbamate; hydrochloride]", "change in vivo at 3 mg/kg": 61.3}
    ]}
  ]
}
